Structures are written as SMILES. pKi: −log10 of the molar value.

Sequence of human RIP1 kinase domain (2-375) (Q13546 2-375): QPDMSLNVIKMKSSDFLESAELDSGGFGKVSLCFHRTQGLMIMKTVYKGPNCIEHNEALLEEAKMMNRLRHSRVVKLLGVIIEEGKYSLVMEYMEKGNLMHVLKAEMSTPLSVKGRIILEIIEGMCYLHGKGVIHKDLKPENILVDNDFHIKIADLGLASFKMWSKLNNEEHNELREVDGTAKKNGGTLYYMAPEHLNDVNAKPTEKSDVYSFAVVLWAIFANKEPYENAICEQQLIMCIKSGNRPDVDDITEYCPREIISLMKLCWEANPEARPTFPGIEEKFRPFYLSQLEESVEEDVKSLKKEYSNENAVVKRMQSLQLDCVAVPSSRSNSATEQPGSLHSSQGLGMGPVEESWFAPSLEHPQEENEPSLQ

One experiment addresses human RIP1 kinase domain (2-375) (Homo sapiens (Human), UniProt Q13546). The experiment is described as follows: biochemical. Type of experiment: biochemical. The settings on record: Ki. In outline:
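Ki^app comes from Morrison tight-binding fits of fractional activity versus compound concentration. Activity was read as ADP production, via tracer displacement lowering fluorescence polarization (633 nm laser). Conditions: 2 h, 50 nM insect-cell-expressed enzyme, 50 uM ATP, 30 mM MgCl2, 1 mM DTT, 0.5% DMSO, pH 7.5 Hepes.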
As a reminder, the pKi is −log10 of the Ki, conventionally taken in molar units. Take `CN1C(=O)[C@@H](NC(=O)c2ncn(Cc3ccccc3)n2)CCn2nc(C3CNC3)cc21` [Example 754, 1-benzyl-N-[(6S)-2-(azetidin-3-yl)-4-methyl-5-oxo-7,8-dihydro-6H-pyrazolo[1,5-a][1,3]diazepin-6-yl]-1,2,4-triazole-3-carboxamide]: the pKi was 6.39.

The experiment is the same for the next values; noted with them: Table 5; apparent Ki (Morrison tight-binding fit); 50 nM RIP1 kinase domain, 50 uM ATP, 2 hours incubation; read-out: Ki.
As for `C[C@]1(C(F)(F)F)OCc2cnc(C(=O)N[C@H]3CCc4cc(F)cc(F)c4NC3=O)cc21` [Example 746, (1S)-1-methyl-N-[(3S)-7,9-difluoro-2-oxo-1,3,4,5-tetrahydro-1-benzazepin-3-yl]-1-(trifluoromethyl)-3H-furo[3,4-c]pyridine-6-carboxamide], the pKi is 7.64. With `C[C@]1(C(F)(F)F)OCc2cnc(C(=O)N[C@H]3CCc4cc(F)cc(F)c4NC3=O)nc21` [Example 747, (7S)-7-methyl-N-[(3S)-7,9-difluoro-2-oxo-1,3,4,5-tetrahydro-1-benzazepin-3-yl]-7-(trifluoromethyl)-5H-furo[3,4-d]pyrimidine-2-carboxamide], the pKi was 7.38.

Consider `C[C@@]1(C(F)(F)F)OCc2cnc(C(=O)N[C@H]3CCc4cc(F)cc(F)c4NC3=O)cc21` [Example 748, (1R)-1-methyl-N-[(3S)-7,9-difluoro-2-oxo-1,3,4,5-tetrahydro-1-benzazepin-3-yl]-1-(trifluoromethyl)-3H-furo[3,4-c]pyridine-6-carboxamide], for which the pKi was 7.85. For the molecule `C[C@@]1(C(F)(F)F)OCc2cnc(C(=O)N[C@H]3CCc4cc(F)cc(F)c4NC3=O)nc21` [Example 749, (7R)-7-methyl-N-[(3S)-7,9-difluoro-2-oxo-1,3,4,5-tetrahydro-1-benzazepin-3-yl]-7-(trifluoromethyl)-5H-furo[3,4-d]pyrimidine-2-carboxamide], the pKi is 7.92.

Regarding `Cc1cc2n(n1)CC[C@H](NC(=O)c1cn(Cc3ccccc3)cn1)C(=O)N2C` [Example 751, 1-benzyl-N-[(6S)-2,4-dimethyl-5-oxo-7,8-dihydro-6H-pyrazolo[1,5-a][1,3]diazepin-6-yl]imidazole-4-carboxamide], the pKi was 7.36. On the same count and under the same terms, the same measure for `CN1C(=O)[C@@H](NC(=O)c2ncn(Cc3ccccc3)n2)CCn2nc(CCN3CCOCC3)cc21` [Example 752, 1-benzyl-N-[(6S)-4-methyl-2-(2-morpholinoethyl)-5-oxo-7,8-dihydro-6H-pyrazolo[1,5-a][1,3]diazepin-6-yl]-1,2,4-triazole-3-carboxamide]: 6.94. On to `CN1C(=O)[C@@H](NC(=O)c2ncn(Cc3ccccc3F)n2)CCn2nc(CCN3CCOCC3)cc21` [Example 753], for which the pKi was 7.13. Same read-out and setting: the result for `COCCOCCc1cc2n(n1)CC[C@H](NC(=O)c1ncn(Cc3ccccc3)n1)C(=O)N2C` [Example 755, 1-benzyl-N-[(6S)-2-[2-(2-methoxyethoxy)ethyl]-4-methyl-5-oxo-7,8-dihydro-6H-pyrazolo[1,5-a][1,3]diazepin-6-yl]-1,2,4-triazole-3-carboxamide] reads 6.91; that for `CN1C(=O)[C@@H](NC(=O)c2ncn(Cc3ccccc3)n2)CCn2nc(CCN3CCC3)cc21` [Example 756], 6.21. Still for that read-out and setting: the result for `COC1CN(CCc2cc3n(n2)CC[C@H](NC(=O)c2ncn(Cc4ccccc4)n2)C(=O)N3C)C1` [Example 757] reads 6.77; that for `CCOCCc1cc2n(n1)CC[C@H](NC(=O)c1ncn(Cc3ccccc3)n1)C(=O)N2C` [Example 758], 7.07; that for `CN1C(=O)[C@@H](NC(=O)c2ncn(Cc3ccccc3)n2)CCn2nc(C3CN(C(=O)OC(C)(C)C)C3)cc21` [Example 759], 7.62.

Turning to `COCCOCCc1cc2n(n1)CC[C@H](NC(=O)c1ncn(Cc3ccccc3F)n1)C(=O)N2C` [Example 760, 1-[(2-fluorophenyl)methyl]-N-[(6S)-2-[2(2-methoxyethoxy)ethyl]-4-methyl-5-oxo-7,8-dihydro-6H-pyrazolo[1,5-a][1,3]diazepin-6-yl]-1,2,4-triazole-3-carboxamide], the pKi is 7.11.

Take `CN1C(=O)[C@@H](NC(=O)c2ncn(Cc3ccccc3)n2)CCn2nc(CCN3CC4CC3CO4)cc21` (stereo partly drawn) [Example 761, 1-benzyl-N-[(6S)-4-methyl-2-[2-(2-oxa-5-azabicyclo[2.2.1]heptan-5-yl)ethyl]-5-oxo-7,8-dihydro-6H-pyrazolo[1,5-a][1,3]diazepin-6-yl]-1,2,4-triazole-3-carboxamide]: the pKi is 6.80. With `CN1C(=O)[C@@H](NC(=O)c2ncn(Cc3ccccc3F)n2)CCn2nc(CCN3CC4CC3CO4)cc21` (stereo partly drawn) [Example 762], the pKi is 6.74. As to `CCOCCc1cc2n(n1)CC[C@H](NC(=O)c1ncn(Cc3ccccc3F)n1)C(=O)N2C` [Example 763], the pKi is 7.14. As for `CN1C(=O)[C@@H](NC(=O)c2ncn(Cc3ccccc3)n2)CCn2nc(CCO)cc21` [Example 766, 1-benzyl-N-[(6S)-2-(2-hydroxyethyl)-4-methyl-5-oxo-7,8-dihydro-6H-pyrazolo[1,5-a][1,3]diazepin-6-yl]-1,2,4-triazole-3-carboxamide], the pKi is 7.08. Still for that read-out and setting: the result for `COCCc1cc2n(n1)CC[C@H](NC(=O)c1ncn(Cc3ccccc3)n1)C(=O)N2C` [Example 767, 1-benzyl-N-[(6S)-2-(2-methoxyethyl)-4-methyl-5-oxo-7,8-dihydro-6H-pyrazolo [1,5-a][1,3]diazepin-6-yl]-1,2,4-triazole-3-carboxamide] reads 7.19. Regarding `COCCc1cc2n(n1)CC[C@H](NC(=O)c1ncn(Cc3ccccc3F)n1)C(=O)N2C` [Example 768], the pKi is 7.29. On the same count and under the same terms, the same measure for `CN1C(=O)[C@@H](NC(=O)c2ncn(Cc3ccccc3)n2)CCn2nc(CCN3CC(F)C3)cc21` [Example 769]: 6.63; for `CN1C(=O)[C@@H](NC(=O)c2ncn(Cc3ccccc3F)n2)CCn2nc(CCN3CC(F)C3)cc21` [Example 770, 1-[(2-fluorophenyl)methyl]-N-[(6S)-2-[2-(3-fluoroazetidin-1-yl)ethyl]-4-methyl-5-oxo-7,8-dihydro-6H-pyrazolo[1,5-a][1,3]diazepin-6-yl]-1,2,4-triazole-3-carboxamide]: 6.47; for `COC1CN(CCc2cc3n(n2)CC[C@H](NC(=O)c2ncn(Cc4ccccc4F)n2)C(=O)N3C)C1` [Example 771, 1-[(2-fluorophenyl)methyl]-N-[(6S)-2-[-(3-methoxyazetidin-1-yl)ethyl]-4-methyl-5-oxo-7,8-dihydro-6H-pyrazolo[1,5-a][1,3]diazepin-6-yl]-1,2,4-triazole-3-carboxamide]: 6.76. On the same count and under the same terms, the result for `CN1C(=O)[C@@H](NC(=O)c2ncn(Cc3ccccc3)n2)CCn2nc(CCN3CC(F)(F)C3)cc21` [Example 772] reads 6.94; that for `CN1C(=O)[C@@H](NC(=O)c2ncn(Cc3ccccc3F)n2)CCn2nc(CCN3CC(F)(F)C3)cc21` [Example 773, 1-[(2-fluorophenyl)methyl]-N-[(6S)-2-[2-(3,3-difluoroazetidin-1-yl)ethyl]-4-methyl-5-oxo-7,8-dihydro-6H-pyrazolo[1,5-a][1,3]diazepin-6-yl]-1,2,4-triazole-3-carboxamide], 6.72; that for `CN1C(=O)[C@@H](NC(=O)c2ncn(Cc3ccccc3)n2)CCn2nc(CC3CCOCC3)cc21` [Example 774, 1-benzyl-N-[(6S)-4methyl-5-oxo-2-(tetrahydropyran-4-ylmethyl)-7,8-dihydro-6H-pyrazolo[1,5-a][1,3]diazepin-6-yl]-1,2,4-triazole-3-carboxamide], 7.43.

Regarding `CN1C(=O)[C@@H](NC(=O)c2ncn(Cc3ccccc3)n2)CCn2nc(CN3CCOCC3)cc21` [Example 779, (S)-1-benzyl-N-(4-methyl-2-(morpholinomethyl)-5-oxo-5,6,7,8-tetrahydro-4H-pyrazolo[1,5-a][1,3]diazepin-6-yl)-1H-1,2,4-triazole-3-carboxamide], the pKi is 6.81. `COC1CN(Cc2cc3n(n2)CC[C@H](NC(=O)c2ncn(Cc4ccccc4)n2)C(=O)N3C)C1` [Example 781, (S)-1-benzyl-N-(2-((3-methoxyazetidin-1-yl)methyl)-4-methyl-5-oxo-5,6,7,8-tetrahydro-4H-pyrazolo[1,5-a][1,3]diazepin-6-yl)-1H-1,2,4-triazole-3-carboxamide]: the pKi was 6.76. Same read-out and setting: the result for `CN1C(=O)[C@@H](NC(=O)c2ncn(Cc3ccccc3)n2)CCn2nc(CN3CC(F)C3)cc21` [Example 782, (S)-1-benzyl-N-(2-((3-fluoroazetidin-1-yl)methyl)-4-methyl-5-oxo-5,6,7,8-tetrahydro-4H-pyrazolo[1,5-a][1,3]diazepin-6-yl)-1H-1,2,4-triazole-3-carboxamide] reads 6.85.

Regarding `CN1C(=O)[C@@H](NC(=O)c2nc3n(n2)CCN(C)C3c2ccccc2)COc2ccccc21` (stereo partly drawn) [Example 786, 7-methyl-N-[(3S)-5-methyl-4-oxo-2,3-dihydro-1,5-benzoxazepin-3-yl]-8-phenyl-6,8-dihydro-5H-[1,2,4]trizolo [1,5-a]pyrazine-2-carboxamide], the pKi was 6.95.

As for `CN1C(=O)[C@@H](NC(=O)c2nc3n(n2)CCNC3C(F)(F)F)COc2ccccc21` (stereo partly drawn) [Example 787, N-[(3S)-5-methyl-4-oxo-2,3-dihydro-1,5-benzoxazepin-3-yl]-8-(trifluoromethyl)-5,6,7,8-tetrahydro-[1,2,4]triazolo [1,5-a]pyrazine-2-carboxamide], the pKi is 6.51.

The experiment is the same for the next values; noted with them: scale-up batches (Examples A-C); apparent Ki (Morrison tight-binding fit); 50 nM RIP1 kinase domain, 50 uM ATP; read-out: Ki.
Take `CN1C(=O)[C@@H](NC(=O)c2ncn(Cc3ccccc3)n2)CCn2nc(C3CC3)cc21` [Example A, (S)-1-benzyl-N-(2-cyclopropyl-4-methyl-5-oxo-5,6,7,8-tetrahydro-4H-pyrazolo[1,5-a][1,3]diazepin-6-yl)-1H-1,2,4-triazole-3-carboxamide]: the pKi was 7.80.

In the case of `CN1C(=O)[C@@H](NC(=O)c2ncn(Cc3ccccc3)n2)CCn2nccc21` [Example B], the pKi was 7.89.

The values are drawn from patent publication US10988459B2 (priority 2015, dated 2021).
